Consider three compounds from patent US20230348453A1, “HALOGENATED-HETEROARYL AND OTHER HETEROCYCLIC KINASE INHIBITORS, AND USES THEREOF” (iOmx Therapeutics AG, priority 2020, published 2023).

Data set [1] in a line: Murine plasma protein binding. The settings on record: Table 5A.
The nature of data set [2]: Human plasma-protein binding. The note with it: Table 5A.
The nature of data set [3]: in vitro. The note with it: human, microsomes.
Data set [4] is described as follows: in vitro. The note with it: mouse, microsomes.
The target in a further data set is SIK3 (Homo sapiens (Human), UniProt Q9Y2K2). The settings on record: read-out: SIK3 IC50.
For data set [5] the following is noted: microsomes.
For data set [6] the following is noted: microsomes. This is another data set of the same source.
The target of the next data set is HCK (Homo sapiens (Human), UniProt P08631). The format is biochemical. The settings on record: Kinase Profiler.
A further data set relates to K562 CML cells. The note with it: 10 mg/kg/day; cited from earlier work.
For a further data set, the target named is hERG potassium channel (Homo sapiens (Human), UniProt Q12809). The settings on record: cited from earlier work.
The conditions of data set [7]: cited from earlier work.
The conditions of data set [8]: human, in vivo; cited from earlier work.
Data set [9] concerns the target T1, RET (Homo sapiens (Human), UniProt P07949).
In a further data set the test system is KU812 tumours. The note with it: 50 mg/kg/day for 5 days; cited from earlier work.
Another data set addresses MDR1 (P-gp) (Homo sapiens (Human), UniProt P08183). Nature of the data set: in vitro. The settings on record: dog, MDCK-MDR1, MDCK-MDR1 cells.
Data set [10] can be described thus: in vitro. The settings on record: dog, MDCK, MDCK-wild type cells.
Data set [11] can be described thus: Screening PK in mice after 30 mg/kg po. The settings on record: mouse, in vivo.
A short description of data set [12]: Full pharmacokinetic study in mice. The settings on record: mouse, in vivo.
Data set [13] has as its target T1, RET. Nature of the data set: biochemical. The settings on record: read-out: RET residual activity (%) at 1 μM, 1 μM.
A further data set concerns the target SRC (GST-HIS-tag) (Homo sapiens (Human), UniProt P12931). The format is biochemical.
In the next data set the target is SIK1 (Homo sapiens (Human), UniProt P57059). The note with it: read-out: SIK1 IC50.
A further data set deals with SIK2 (Homo sapiens (Human), UniProt Q9H0K1). The settings on record: read-out: SIK2 IC50.
A further data set concerns the target ABL1 wt (Homo sapiens (Human), UniProt P00519). Format: biochemical.

The half-life is the time in which the quantity being followed falls by half. A high value points to slow decline. What is called IC50 is the concentration that inhibits the measured activity by half. Usually Papp stands for the rate of passage across a membrane or cell layer, normalised by area and donor concentration. A lower Papp goes with poor permeation.

T1 sequence (P07949 29-1114 limits assumed): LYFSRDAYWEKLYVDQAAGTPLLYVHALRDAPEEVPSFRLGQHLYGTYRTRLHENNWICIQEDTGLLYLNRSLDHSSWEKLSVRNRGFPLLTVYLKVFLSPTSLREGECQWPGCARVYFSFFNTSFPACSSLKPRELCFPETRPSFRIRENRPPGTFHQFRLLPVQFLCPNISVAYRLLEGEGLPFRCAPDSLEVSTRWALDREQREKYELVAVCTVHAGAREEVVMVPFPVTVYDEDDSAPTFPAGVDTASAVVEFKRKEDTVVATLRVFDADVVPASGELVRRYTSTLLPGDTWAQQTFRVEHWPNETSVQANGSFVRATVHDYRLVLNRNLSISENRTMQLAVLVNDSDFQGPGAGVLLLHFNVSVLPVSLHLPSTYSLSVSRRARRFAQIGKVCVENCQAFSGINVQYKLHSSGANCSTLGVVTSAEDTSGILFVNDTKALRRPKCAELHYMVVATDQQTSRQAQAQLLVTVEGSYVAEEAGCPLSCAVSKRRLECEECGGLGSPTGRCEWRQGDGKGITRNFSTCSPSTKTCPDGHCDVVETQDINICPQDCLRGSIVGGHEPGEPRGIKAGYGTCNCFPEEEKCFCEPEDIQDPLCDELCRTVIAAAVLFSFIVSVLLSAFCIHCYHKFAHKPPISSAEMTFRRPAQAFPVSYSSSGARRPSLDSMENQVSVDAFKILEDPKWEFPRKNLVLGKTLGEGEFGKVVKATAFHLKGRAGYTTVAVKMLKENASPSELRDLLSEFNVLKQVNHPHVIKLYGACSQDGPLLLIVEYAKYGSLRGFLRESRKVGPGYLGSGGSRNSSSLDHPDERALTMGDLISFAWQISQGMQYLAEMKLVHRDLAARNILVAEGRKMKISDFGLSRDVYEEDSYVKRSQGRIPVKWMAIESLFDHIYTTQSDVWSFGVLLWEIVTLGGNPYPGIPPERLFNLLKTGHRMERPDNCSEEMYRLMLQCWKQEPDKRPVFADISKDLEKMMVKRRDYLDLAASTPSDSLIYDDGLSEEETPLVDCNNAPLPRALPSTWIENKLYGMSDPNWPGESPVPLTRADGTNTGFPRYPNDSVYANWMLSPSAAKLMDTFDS
ABL1 wt, sequence (P00519 118-535 limits assumed): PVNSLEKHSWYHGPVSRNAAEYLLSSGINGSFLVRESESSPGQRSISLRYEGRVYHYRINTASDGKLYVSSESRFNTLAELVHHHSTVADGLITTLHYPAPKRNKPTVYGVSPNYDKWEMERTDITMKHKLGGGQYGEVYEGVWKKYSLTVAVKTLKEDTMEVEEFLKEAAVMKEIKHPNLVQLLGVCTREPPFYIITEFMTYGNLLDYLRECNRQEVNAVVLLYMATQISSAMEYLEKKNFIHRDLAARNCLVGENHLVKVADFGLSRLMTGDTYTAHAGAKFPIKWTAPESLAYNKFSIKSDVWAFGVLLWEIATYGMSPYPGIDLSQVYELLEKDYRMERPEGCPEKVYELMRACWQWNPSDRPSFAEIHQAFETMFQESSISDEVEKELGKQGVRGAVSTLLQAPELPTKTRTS

Turning to `Cc1nc(Nc2ncc(C(=O)Nc3c(C)nn(C)c3C)s2)cc(N2CCN(CCO)CC2)n1` [Compound C8, 2-((6-(4-(2-hydroxyethyl)piperazin-1-yl)-2-methylpyrimidin-4-yl)amino)-N-(1,3,5-trimethyl-1H-pyrazol-4-yl)thiazole-5-carboxamide], the “Kinetic solubility” value worked out at 189 µM. Also, in data set [1], the “Murine plasma protein binding, Percentage unbound (%)” value worked out at 62%. Also, in data set [2], the “Human plasma-protein binding, Percentage unbound (%)” value stood at 5%. In addition, the half-life in the data set “in vitro [3]” is greater than 1.67 h. Also, in the data set “in vitro [4]”, the half-life was greater than 1.67 h. Further, the IC50 at SIK3 is 9730 nM. The compound also registered a Human liver microsomal stability, Intrinsic clearance in data set [5] of less than 14 µL/min/mg. The compound further yielded a Mouse liver microsomal stability, Intrinsic clearance (L/min/mg) in data set [6] of less than 14 µL/min/mg.
For `Cc1nc(Nc2ncc(C(=O)Nc3c(C)cccc3Cl)s2)cc(N2CCN(CCO)CC2)n1` [Compound A8, N-(2-chloro-6-methylphenyl)-2-((6-(4-(2-hydroxyethyl)piperazin-1-yl)-2-methylpyrimidin-4-yl)amino)thiazole-5-carboxamide], the HCK residual activity entry on HCK is reported as “less than 1%”. Also, the “survival of mice inoculated intracranially with K562 CML cells” value in the data set on K562 CML cells is on record as “increased survival”. Further, the “inhibition of hERG currents at 3 uM” value on hERG potassium channel was “about 6%”. The “inhibition of hERG currents at 10 uM” value on hERG potassium channel was roughly 36%. Moreover, the “severe gastrointestinal haemorrhage, including fatalities” value in [7] (all clinical studies) is recorded as 4 % of patients. Also, the “cardiomyopathy, heart failure congestive, diastolic dysfunction, fatal myocardial infarction, and left ventricular dysfunction” value in [7] (human, in vivo) is given as 1.6 % of patients. For the same compound, the “patients with cardiomyopathy, heart failure congestive, diastolic dysfunction, fatal myocardial infarction, and left ventricular dysfunction” value in data set [8] is given as 1.6%. The “RET residual activity (%) at 1 μM” value on RET [9] came to 39%. The “outcome in mice bearing large KU812 tumours” value with KU812 tumours was “curative”. For the same compound, the Papp is 105 ×10⁻⁶ cm/s on MDR1 (P-gp), 2.4 ×10⁻⁶ cm/s on MDR1 (P-gp) (Mean Papp A > B (10^−6 cm/s)), 21 ×10⁻⁶ cm/s in the data set “in vitro [10]” (Mean Papp A > B (10^−6 cm/s)) and 49 ×10⁻⁶ cm/s in the data set “in vitro [10]” (Mean Papp B > B (10^−6 cm/s)). In addition, in [11], the “Cmax after 2 h” value was found to be 550 ng/mL. For the same compound, the “Cmax (ng/ml), Total” value in data set [12] amounted to 550 ng/mL. The remaining activity at 1 µM on RET [13] was less than 40%.
Consider `Cc1nc(Nc2ncc(C(=O)Nc3c(C)noc3C)s2)cc(N2CCN(CCO)CC2)n1` [Compound C9], for which, in data set [1], the “Murine plasma protein binding, Percentage unbound (%)” value came out at 44%. Also, the IC50 at SRC (GST-HIS-tag) worked out at 6.44 nM; at SIK1 it was 169 nM; at SIK2, 232 nM; on ABL1 wt, 27.4 nM; on SIK3, 800 nM. Besides, the “Human plasma-protein binding, Percentage unbound (%)” value in data set [2] came out at 6%. Moreover, the “Human liver microsomal stability, Intrinsic clearance” value in data set [5] was less than 1.4e+07 µL/min/mg. The “Human liver microsomal stability, % Remaining at 40 min (%)” value in data set [5] (40 min) amounted to 89%. The “Mouse liver microsomal stability, Intrinsic clearance (L/min/mg)” value in data set [6] is recorded as less than 14. Besides, the “Mouse liver microsomal stability, % Remaining at 40 min (%)” value in [6] (40 min) turned out to be 83%.
